Laboratory results published in PubChem BioAssay AID489023 (Sanford-Burnham Center for Chemical Genomics, 2010).
pIC50: −log10 of the molar value. The source made the active and inactive calls. No rule for the calls is given here.

Each compound was assayed on 697B cells, BCR-induced NF-kB luciferase reporter luminescence (assay: inhibitors of BCR-induced NF-kB activation, dose response, 697B cells, luciferase luminescence (AID 489023)).

| Compound | IC50 | pIC50 |
| --- | --- | --- |
| O=C(NCCCN1CCOCC1)c1cc(-c2ccc(Br)cc2)on1 | 48.1 µM (inactive) | – |
| Cc1ccc(/C=C2\SC(=S)N(CCC(=O)NNC(=O)c3ccncc3)C2=O)cc1 | > 80 µM (inactive) | – |
| CC(C)c1ccc(/C=C2\SC(=S)N(CCC(=O)NCCCn3ccnc3)C2=O)cc1 | – | 4.78 |
| Cc1cc(C)c2nc(NC(=O)[C@@H](NC(=O)c3cccc(S(=O)(=O)N4CCOCC4)c3)C(C)C)sc2c1 | – | 4.80 |
| COc1ccc(/C=C2\SC(=S)N(CCCC(=O)NNC(=O)c3ccccc3O)C2=O)cc1 | – | 6.17 |
| O=C(NNC(=O)C12CC3CC(CC(C3)C1)C2)c1cccc(O)c1 | – | 4.78 |
| CCOC(=O)C1CCN(c2ncnc3c2cnn3-c2ccc(OC)cc2)CC1 | > 80 µM (inactive) | – |
| COc1cc(-c2nc3ccc(N4CCN(C)CC4)cc3[nH]2)cc(OC)c1OC | > 80 µM (inactive) | – |
| CC1=CC(C)(C)Nc2ccc(OC(=O)CN3C(=O)CCC3=O)cc21 | – | 5.07 |
| O=C(NCCC1CCCCN1S(=O)(=O)c1ccc(Cl)cc1)C(=O)NCc1ccncc1 (centres undefined) | – | 5.37 |
| C=CCn1c(O)c(C(CC)=NC(C)c2ccccc2)c(=O)[nH]c1=O (centres undefined) | 56.4 µM (inactive) | – |
| COCCCNC(=O)COc1ccc(-c2nccc(-c3ccccn3)n2)cc1 | – | 4.71 |
| CC(C)C[C@@H](N)c1nnc(SCC(=O)c2ccc(Cl)cc2)o1 | 47.6 µM (inactive) | – |
| O=C(CCCN1C(=O)/C(=C/c2ccccc2Cl)SC1=S)NNC(=O)c1ccc(Cl)cc1 | 30.7 µM (inactive) | – |
| CCC(C)[C@H](N)c1nnc(SCC(=O)c2ccc(Cl)cc2)o1 (some centres undefined) | > 80 µM (inactive) | – |
| COc1ccc(NC(=O)c2cc(-c3ccccn3)nc3ccccc23)cc1S(=O)(=O)N(C)C | – | 5.11 |
| Cc1nc2cc(-c3ccc(Cl)cc3)nn2c(C)c1CCC(=O)NCc1ccco1 | > 80 µM (inactive) | – |
| Cc1nc2cc(-c3ccc(Cl)cc3)nn2c(C)c1CCC(=O)NC(C)c1ccc2c(c1)OCCO2 (centres undefined) | 23.7 µM (inactive) | – |
| Cc1nn(C(C)(C)C)c(OC(=O)c2ccc(Br)o2)c1Sc1ccccc1 | > 80 µM (inactive) | – |
| N#CC1=C(N)Oc2cc(Nc3ccccc3)ccc2C1c1ccncc1 (centres undefined) | – | 5.07 |
| COC(=O)c1cc(NC(=O)Nc2cc(OC)ccc2OC)cc(C(=O)OC)c1 | > 80 µM (inactive) | – |
| Cc1c(CCC(=O)O)c(=O)oc2cc3oc4c(c3cc12)CCCC4 | – | 6.57 |
| CCNC(=O)CCc1nc(-c2ccc(C(C)(C)C)cc2)no1 | – | > 6.80 |
| Cc1cc(C)c(S(=O)(=O)NCc2ccncc2)c(C)c1 | > 80 µM (inactive) | – |

| Compound | IC50 | pIC50 |
| --- | --- | --- |
| Cn1c(=O)n(C)c2cc(C(=O)Nc3ccc4c(c3)OCO4)ccc21 | 35.2 µM (inactive) | – |
| COc1cccc(Cn2nnc(C(=O)Nc3cc(Cl)ccc3OC)c2N)c1 | > 80 µM (inactive) | – |
| CCOC(=O)/C=C(\C)Sc1cc(=O)oc2ccccc12 | – | 5.79 |
| CCN(C(=O)CN1C(=O)NC(c2ccccc2)(c2ccc(C)c(C)c2)C1=O)C1CCCCC1 (centres undefined) | 48.4 µM (inactive) | – |
| O=C(O)CCSc1nc2ccccc2s1 | – | 5.00 |
| CC(=O)c1cccc(S(=O)(=O)Nc2cc(C(F)(F)F)ccc2N2CCOCC2)c1 | > 80 µM (inactive) | – |
| CCN(CC)c1ccc2cc(NC(=O)CCC(=O)O)c(=O)oc2c1 | – | 5.91 |
| COc1ccc(/C=C\C(=O)O[C@@H]2C(O)C(O[C@@H]3OC(C)[C@H](O[C@@H]4OCC(O[C@H]5O[C@H](CO)[C@@H](O)C(O)C5O)C(O)C4O)C(O)C3O)[C@H](OC(=O)[C@]34CCC(C)(C)C[C@@H]3C3=CCC5[C@@]6(C)CC(O)C(O[C@@H]7OC(CO)C(O)[C@H](O)[C@H]7O)[C@@](C)(C(=O)O)C6CC[C@@]5(C)[C@]3(CO)CC4)O[C@H]2C)cc1 (some centres undefined) | – | 4.70 |
| COc1ccc(C(=O)N/N=C/c2sc(N3CCOCC3)nc2-c2ccccc2)cc1OC | – | 4.84 |
| Cc1c(CC(=O)NCCCC(=O)O)c(=O)oc2cc3c(cc12)CCC(C)(C)O3 | – | 5.17 |
| CN1C(=O)c2cccc3c(S(=O)(=O)Nc4ccccc4F)ccc1c23 | 57.4 µM (inactive) | – |
| O=[N+]([O-])c1ccc(Sc2cc[n+]([O-])c3ccccc23)c([N+](=O)[O-])c1 | – | 6.23 |
| Cc1ccc(CSc2nnc(SCC(=O)N/N=C/C=C/c3ccccc3[N+](=O)[O-])s2)cc1 | > 80 µM (inactive) | – |
| COC(=O)c1[nH]c2ccc(C)cc2c1NC(=O)Nc1ccccc1OC | > 80 µM (inactive) | – |
| NC(=S)N=Nc1c(O)n(Cc2ccccc2)c2ccccc12 | – | 4.79 |
| CCOc1ccc(-c2c[n+]3c(n2-c2ccccc2)CCCCC3)cc1 | > 80 µM (inactive) | – |
| COc1ccc(-c2noc(N3CCC(C(=O)Nc4ccc(OC)c(OC)c4)CC3)n2)cc1 | > 80 µM (inactive) | – |
| CSC1CCCCC1(O)CSc1nc2c(cc1C#N)CCCC2 (centres undefined) | > 80 µM (inactive) | – |
| CCn1c(=O)c2cc(C(=O)NCc3cccs3)sc2c2ccccc21 | > 80 µM (inactive) | – |
| COc1ccc(-c2n(Cc3ccccc3)c3ccccc3[n+]2Cc2ccccc2)cc1 | > 80 µM (inactive) | – |
| CC1=CC(C)(C)Nc2ccc(OC(=O)C(Cc3ccccc3)N3C(=O)c4ccccc4C3=O)cc21 (centres undefined) | > 80 µM (inactive) | – |
| CCN(CC(=O)Nc1c(F)cccc1F)C(=O)c1cc([N+](=O)[O-])ccc1N1CCCCC1 | – | 4.87 |
| CC(C)(C)c1ccc(-c2noc(CCC(N)=O)n2)cc1 | – | > 6.80 |
| COc1ccc(-c2ccc(C(C)=O)cc2)cc1[C@H]1[C@H]2C=CC[C@@H](C)[C@@H]2C(=O)N1Cc1ccccc1 | > 80 µM (inactive) | – |

| Compound | IC50 | pIC50 |
| --- | --- | --- |
| CCCOc1ccc(NC(=O)C(=O)NCCCn2ccnc2)cc1 | – | 4.85 |
| Cc1ccccc1-n1c(SCc2c(C)noc2C)nnc1-c1c[nH]c2ccccc12 | 76.1 µM (inactive) | – |
| O=C(Oc1cccc(/C=N/Nc2nc(N3CCOCC3)nc(N3CCOCC3)n2)c1)c1ccco1 | – | 4.74 |
| COc1cc(/C=N/Nc2nc(Nc3ccccc3)nc(N3CCOCC3)n2)ccc1OC(=O)c1ccco1 | – | 5.29 |
| O=C(CN1C(=O)c2ccccc2S1(=O)=O)c1ccccc1Cl | – | 5.95 |
| O=C1CCC2S/C(=C/Nc3ccc(C(F)(F)F)cc3)C(=O)N12 (centres undefined) | – | 6.03 |
| COc1ccc(C(=O)n2nc(-c3ccc(Cl)cc3)nc2N)cc1OC | – | 5.89 |
| CCOCCCNc1nc2c(C)cccn2c(=O)c1/C=C1\SC(=S)N(C(C)CC)C1=O (centres undefined) | 36.3 µM (inactive) | – |
| COc1ccc(/C=C2\SC(=S)N(CCCC(=O)Nc3ccc(O)cc3)C2=O)cc1 | – | 5.90 |
| CCC(=O)N1c2ccccc2[C@@H](N(C(C)=O)c2ccccc2)C[C@H]1C | 58.2 µM (inactive) | – |
| Cn1nc(-c2ccc(N3CCOCC3)c(NS(=O)(=O)c3ccccc3)c2)c2ccccc2c1=O | > 80 µM (inactive) | – |
| O=C(Nc1cccc(Br)c1)c1ccc2c(c1)SC1=NS(=O)(=O)CCN12 | – | 4.80 |
| COc1ccc(C=C(C(C)=O)C(C)=O)cc1OC | 57.7 µM (inactive) | – |
| NC(=O)C1CCN(C(=O)COc2ccc3ccccc3c2Br)CC1 | 39.4 µM (inactive) | – |
| COc1cc(OC)cc(-c2cc3nc(C)c(CCC(=O)Nc4nc(C)cs4)c(C)n3n2)c1 | – | 4.88 |
| COc1cc(-c2nc(C(=O)NCC3CCCO3)cc3c2[nH]c2ccccc23)cc(OC)c1OC (centres undefined) | – | 4.91 |
| Cc1ccc(-c2nn3c(C)nnc3c3ccccc23)cc1S(=O)(=O)NC(C)(C)CO | 29.6 µM (inactive) | – |
| N#Cc1ccccc1COc1ccc(/C=C/C(=O)O)cc1 | – | 4.83 |
| CC(C)c1ccc(/C=C2\SC(=S)N(CCC(=O)N3CCCCC3CCO)C2=O)cc1 (centres undefined) | – | 5.79 |
| COc1ccc(-c2nn(C)c(=O)c3ccccc23)cc1NS(C)(=O)=O | 39.9 µM (inactive) | – |
| Cc1ccc(C)c(-n2nnnc2Sc2nnnn2-c2ccccc2)c1 | – | 5.88 |
| Cn1c(=NC(=O)CCl)sc2ccccc21 | – | 6.23 |
| COc1ccc(/C=C2\SC(=O)N(CCCC(=O)Nc3ccc(C(=O)O)cc3)C2=O)cc1OC | – | 5.11 |
| Cc1nn(C)c(C)c1CN(C)S(=O)(=O)c1ccc2ccccc2c1 | > 80 µM (inactive) | – |

| Compound | IC50 | pIC50 |
| --- | --- | --- |
| CC1=CC(C)(C)Nc2ccc(OC(=O)c3ccco3)cc21 | – | 5.08 |
| COc1ccc(-c2noc(N3CCC(C(=O)Nc4cccc(OC)c4)CC3)n2)cc1 | > 80 µM (inactive) | – |
| O=C(Cc1cccc2ccccc12)Nc1ccc(-c2cc3ccccc3oc2=O)cc1 | – | > 6.80 |
| O=c1c(C=NCCCO)c(-c2ccccc2)[nH]n1-c1nc2ccccc2s1 | – | 5.04 |
| Cc1ccc(S(=O)(=O)N2CCCCC2CCNC(=O)C(=O)NCc2ccncc2)cc1 (centres undefined) | – | 4.96 |
| CC(C)N1C(=O)S/C(=C/c2ccc3c(c2)n(C)c(=O)n3C)C1=O | > 80 µM (inactive) | – |
| CC(C)(O)/C=C/C(=O)[C@](C)(O)C1[C@H](O)C[C@@]2(C)C3CC=C4C(C[C@H](O)[C@@H](O)C4(C)C)[C@]3(C)C(=O)C[C@]12C (some centres undefined) | 35.1 µM (inactive) | – |
| COc1cc(OC)cc(-c2cc3nc(C)c(CCC(=O)NCc4ccccc4)c(C)n3n2)c1 | – | 5.33 |
| Cc1csc(NC(=O)/C=C/c2ccc3c(c2)OCO3)n1 | – | 5.21 |
| COc1ccc(C(=O)N/N=C/c2ccc(OC)c(CN3CCCc4ccccc43)c2)cc1 | > 80 µM (inactive) | – |
| O=S(=O)(NCc1ccncc1)c1ccc(Br)s1 | > 80 µM (inactive) | – |
| Fc1ccc(C2=Nn3c(nnc3-c3n[nH]c4c3CCC4)SC2)cc1 | 34.6 µM (inactive) | – |
| COc1ccc(-n2c(-c3ccc(Br)cc3)c[n+]3c2CCc2ccccc2-3)cc1 | > 80 µM (inactive) | – |
| COC(=O)[C@@]12OC[C@]34[C@H]([C@@H](O)[C@@H]1O)[C@@]1(C)C(=O)C(O[C@@H]5OC(CO)[C@@H](O)[C@@H](O)[C@@H]5O)=C[C@@H](C)[C@@H]1C[C@H]3OC(=O)[C@H](OC(=O)/C=C(\C)C(C)(C)OC(C)=O)[C@@H]24 (some centres undefined) | – | 6.38 |
| CN(CC1CCCO1)S(=O)(=O)c1ccc(C(=O)Nc2nc3cc4c(cc3s2)OCO4)cc1 (centres undefined) | > 80 µM (inactive) | – |
| COc1ccc(C(C(=O)NC2CCCCC2)N(C(=O)CCl)c2ccc(Cl)cc2)cc1 (centres undefined) | – | 6.07 |
| CCN(CC(=O)Nc1c(F)cccc1F)C(=O)c1cc(S(=O)(=O)N2CCOCC2)ccc1N1CCCC1 | – | 4.90 |
| CCn1c(=O)cc(OCC(=O)Nc2ccc(OC)c(OC)c2)c2ccccc21 | > 80 µM (inactive) | – |
| ClCc1nnc(-c2ccccc2)o1 | – | 4.90 |
| C#CCN(Cc1ccccc1)S(=O)(=O)C=C | 21.3 µM (inactive) | – |
| Oc1[nH]c2ccccc2c1N=Nc1nc(Nc2ccccc2)nc(N2CCOCC2)n1 | – | 5.87 |
| COc1cccc(/C=C2/SC(=S)N(CCCC(=O)Nc3ccc(O)cc3)C2=O)c1 | – | 5.83 |
